In US9487489B2, “Halogen-substituted pyrazole derivatives as pest-control agents” (BAYER CROPSCIENCE AKTIENGESELLSCHAFT, priority 2013, dated 2016):
Values joined by “and” are separate entries in the source; they are usually repeats but may differ in a detail not shown here. Equal values may be shown once.

Key:
[1] = tested on: L1 larvae of the Australian sheep blowfly (Lucilia cuprina); test: Lucilia cuprina test (LUCICU); assay type: in vivo; details: application rate 100 ppm; after 2 days
In short: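 About 20 L1 larvae placed in a vessel with minced horsemeat plus compound (DMSO concentrate diluted with water to the desired concentration). Kill in % scored after 2 days, 100% meaning all larvae dead.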

[2] = tested on: caterpillars of the armyworm (Spodoptera frugiperda); test: Spodoptera frugiperda spray test (SPODFR); assay type: in vivo; details: maize leaf discs, after 7 days
In short: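 Maize leaf discs sprayed with compound in acetone/DMF with alkylaryl polyglycol ether emulsifier (1000 ppm) in water, dried, then infested with armyworm caterpillars. Mortality (%) scored after 7 days; 100% = all caterpillars killed, 0% = none killed.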

[3] = tested on: adult cat fleas (Ctenocephalides felis); test: Ctenocephalides felis in vitro contact test with adult cat fleas (T1); details: after 48 h
In short: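 Test compound was dissolved in acetone p.a. (9 mg per 1 ml) and diluted as needed. 250 μl was spread evenly over the inner walls and floor of a 25 ml test tube by rotating on an orbital shaker for 2 h at 30 rpm. Once the solvent evaporated, 5-10 adult Ctenocephalides felis were added. Tubes were capped with a perforated plastic lid and kept horizontal at room temperature and ambient humidity.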

[4] = tested on: engorged adult female cattle ticks (Boophilus microplus); test: Boophilus microplus injection test (BOOPMI Inj); assay type: in vivo; details: application rate 20 μg/animal; injection into abdomen; assessed after 7 days
In short: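 DMSO solution of compound (1 μl) injected into the abdomen of 5 engorged adult female ticks, which are then held in a climate-controlled room. After 7 days, efficacy is scored from laying of fertile eggs, with unclear eggs kept until larval hatch (~42 days); 100% means no fertile eggs, 0% all fertile.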

[5] = tested on: adult dog ticks (Rhipicephalus sanguineus); test: Rhipicephalus sanguineus in vitro contact test with adult brown dog ticks (T2); details: after 48 h
In short: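 Acetone solutions coated onto test tube walls and floor, giving 5 μg/cm^2 at 900 ppm. Five to ten adult ticks held per tube in the dark at room temperature for 48 h, then heated at 45-50° C for up to 5 min; efficacy is the percentage of dead or moribund ticks unable to climb away.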

[6] = tested on: larvae of the mustard beetle (Phaedon cochleariae); test: Phaedon cochleariae spray test (PHAECO); assay type: in vivo; details: Chinese cabbage leaf discs, after 7 days
In short: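 Compound dissolved in acetone/dimethylformamide with alkylaryl polyglycol ether emulsifier, made up in water containing 1000 ppm emulsifier, then diluted to test concentrations and sprayed against mustard beetle larvae. Efficacy (% larvae killed) scored after 7 days.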

[7] = tested on: adult cat fleas (Ctenocephalides felis); test: Ctenocephalides felis oral test (CTECFE); assay type: in vivo; details: application rate 100 ppm in citrated cattle blood; after 2 days
In short: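 About 20 unfed adult cat fleas fed through parafilm membrane on citrated cattle blood containing compound (DMSO stock diluted in blood to test concentration). Kill % scored after 2 days (100% = all fleas dead).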

[8] = tested on: green peach aphid (Myzus persicae); test: Myzus persicae spray test (MYZUPE); assay type: in vivo; details: Chinese cabbage leaf discs, after 6 days
In short: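 Chinese cabbage leaf discs infested with all aphid stages sprayed with compound in acetone/DMF with alkylaryl polyglycol ether emulsifier in water. Efficacy (% aphids killed; 100% all dead, 0% none) scored after 6 days.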

[9] = tested on: adult houseflies (Musca domestica); test: Musca domestica test (MUSCDO); assay type: in vivo; details: application rate 100 ppm; after 2 days
In short: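 Compound dissolved in DMSO and diluted with water to the test concentration, applied with sugar solution on a sponge; 10 adult houseflies per vessel. Mortality scored after 2 days as % kill (100% all dead, 0% none).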

[10] = tested on: cattle ticks (Boophilus microplus) Parkhurst strain, SP-resistant; test: Boophilus microplus dip test (BOOPMI Dip); assay type: in vivo; details: application rate 100 ppm, assessed after 7 days
Protocol: B. Boophilus microplus-dip Test (BOOPMI Dip)
Test animals: cattle ticks (Boophilus microplus) Parkhurst strain, SP-resistant
Solvent: dimethyl sulphoxide
10 mg of active compound are dissolved in 0.5 ml of dimethyl sulphoxide. For the purpose of preparing a suitable formulation, the active compound solution is diluted with water to the concentration desired in each case.
This active compound preparation is pipetted into tubes. 8-10 adult engorged female cattle ticks (Boophilus microplus) are transferred into a further tube with holes. The tube is immersed into the active compound formulation, and all ticks are completely wetted. After the liquid has run out, the ticks are transferred on filter discs into plastic dishes and stored in a climate-controlled room.
The activity is assessed after 7 days by laying of fertile eggs. Eggs whose fertility is not visible from the outside are stored in a climate-controlled cabinet until the larvae hatch after about 42 days. An efficacy of 100% means that none of the ticks has laid any fertile eggs; 0% means that all eggs are fertile.

[11] = tested on: greenhouse red spider mite (Tetranychus urticae); test: Tetranychus urticae spray test, OP-resistant (TETRUR); assay type: in vivo; details: bean leaf discs, after 6 days
In short: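 Bean leaf discs carrying all stages of OP-resistant Tetranychus urticae were sprayed with compound formulated in acetone/dimethylformamide and diluted in water with 1000 ppm alkylaryl polyglycol ether emulsifier. Mortality (% efficacy, 100% = all mites killed) scored after 6 days.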

[12] = logP determination by HPLC on a reversed-phase column (C18), EEC Directive 79/831 Annex V.A8; assay type: physicochemical; details: HPLC on reversed-phase column (C18), acetonitrile/water with formic acid, EEC Directive 79/831 Annex V.A8
In short: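 Retention on a C18 reversed-phase column (Zorbax Eclipse Plus, 1.8 micron) was used, eluting with acetonitrile/water, each containing formic acid. The gradient ran from 10% to 95% acetonitrile over 4.25 min, then held 1.25 min, at 55° C and 2.0 ml/min, with MS detection.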

[13] = tested on: bont tick nymphs (Amblyomma hebraeum); details: after 48 h

Compound | efficacy (kill in %) [1] [%] | efficacy in % ([2]; application rate 500 g/ha) [%] | efficacy (dead or moribund fleas) ([3]; application rate 1 μg/cm^2) [%] | efficacy (dead or moribund fleas) ([3]; application rate 5 μg/cm^2) [%] | efficacy (laying of fertile eggs) [4] [%] | efficacy (dead or moribund ticks) ([5]; application rate 1 μg/cm^2) [%] | efficacy (dead or moribund ticks) ([5]; application rate 5 μg/cm^2) [%] | efficacy in % ([6]; application rate 500 g/ha) [%] | efficacy (kill in %) [7] [%] | efficacy in % ([8]; application rate 500 g/ha) [%] | efficacy (kill in %) [9] [%] | efficacy (laying of fertile eggs) [10] [%] | efficacy in % ([11]; application rate 500 g/ha) [%] | efficacy in % ([2]; application rate 100 g/ha) [%] | logP [12] | efficacy in % ([8]; application rate 100 g/ha) [%] | efficacy in % ([11]; application rate 100 g/ha) [%] | efficacy in % ([6]; application rate 100 g/ha) [%] | efficacy (dead or moribund ticks) [13]
Cn1cc(NC(=O)c2cc(-c3cnn(-c4c(C(F)(F)F)c(C(F)(F)C(F)(F)F)nn4C)c3)ccc2Cl)cn1 [Ic-166] | 100 | 100 | 100 | 100 | 100 | 100 | 100 | 100 | 100 | 90 | 100 | 100 | 100 |  |  |  |  |  | 
Cn1nc(C(F)(F)C(F)(F)F)c(C(F)(F)F)c1-n1cc(-c2ccc(Cl)c(C(=O)NCCF)c2)cn1 [Ic-77] | 100 |  | 100 | 100 | 100 | 100 | 100 |  | 100 |  | 100 | 100 |  | 100 | 3.67 | 100 | 100 |  | 
Cn1nc(C(F)(F)C(F)(F)F)c(C(F)(F)F)c1-n1cc(-c2cccc(C(=O)NC3(C#N)CC3)c2)cn1 [Ic-19] | 100 |  | 100 | 100 | 100 | 100 | 80 |  | 100 |  | 100 |  |  | 100 | 3.61 |  | 100 | 100 | 100%
Cn1nc(C(F)(F)C(F)(F)F)c(C(F)(F)F)c1-n1cc(-c2ccc(Cl)c(C(=O)NCC3CC3)c2)cn1 [Ic-153] | 100 | 100 | 100 | 100 | 100 | 80 | 80 | 100 | 100 | 90 | 100 | 100 | 100 |  |  |  |  |  | 
Cn1nc(C(F)(F)C(F)(F)F)c(C(F)(F)F)c1-n1cc(-c2ccc(Cl)c(C(=O)NCC#N)c2)cn1 [Ic-147] | 100 | 100 | 100 | 100 | 100 | 80 |  | 100 | 100 | 100 | 100 | 100 | 100 |  |  | 90 |  |  | 
Cn1nc(C(F)(F)C(F)(F)F)c(C(F)(F)F)c1-n1cc(-c2ccc([N+](=O)[O-])c(C(=O)NC3(C#N)CC3)c2)cn1 [Ic-65] | 100 |  | 100 | 100 | 100 |  |  |  | 100 |  | 100 | 100 |  | 83 | 3.48 | 90 | 100 | 100 | 
Cn1nc(C(F)(F)C(F)(F)F)c(C(F)(F)F)c1-n1cc(-c2ccc(Cl)c(C(=O)NC3(C(F)(F)F)CC3)c2)cn1 [Ic-32] | 100 |  |  | 80 | 100 | 80 |  |  | 100 |  | 100 |  |  | 100 | 4.29 |  | 100 | 100 | 100%
Cn1nc(C(F)(F)C(F)(F)F)c(C(F)(F)F)c1-n1cc(-c2ccc(Cl)c(C(=O)NCc3ccccc3)c2)cn1 [Ic-3] | 100 |  |  |  | 100 |  |  |  | 100 |  | 100 |  |  | 100 | 4.39 |  | 90 | 100 | 100% and 80%
Cn1nc(C(F)(F)C(F)(F)F)c(C(F)(F)F)c1-n1cc(-c2ccc(Cl)c(C(=O)N[C@@H]3CCOC3)c2)cn1 [Ic-164] | 100 | 100 | 100 | 100 | 100 | 100 | 100 | 100 | 100 | 90 | 90 | 100 | 100 |  |  |  |  |  | 
